# Results published in patent US9409905B2, “Antibacterial compounds and methods for use” (PTC THERAPEUTICS, INC., priority 2011, dated 2016).
# Experiments:
# K. pneumoniae MXX1232 = experiment: Antibacterial activity, MIC, resistant strain (Table 4); format: cell-based; conditions: Klebsiella pneumoniae, MXX1232; resistant K. pneumoniae MMX1232, multi-drug resistant clinical isolate; read-out: MIC, MMX1232
# Procedure, shortened: (§1)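 Values are minimum inhibitory concentrations in μg/mL from broth microdilution, meaning no macroscopically visible growth at that concentration. Resistant MXX isolates are multi-drug resistant clinical strains.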
# A. baumannii MXX2240 = experiment: as above; format: cell-based; conditions: Acinetobacter baumannii, MXX2240; resistant A. baumannii MMX2240, multi-drug resistant clinical isolate; read-out: MIC, MMX2240
# Procedure, shortened: as §1
# E. coli 25922 = experiment: Antibacterial activity, microbroth dilution MIC (Table 1); format: cell-based, Escherichia coli; conditions: Escherichia coli; microbroth dilution; control Gram-negative E. coli 25922 strain; read-out: MIC, 25922
# Procedure, shortened: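 Microbroth dilution was used. MIC, in μg/mL, is the lowest drug concentration preventing macroscopically visible growth under the test conditions.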
# [1] = tested on: Moraxella catarrhalis (M. catarrhalis) 25238; experiment: Antibacterial activity, MIC (Table 7); format: cell-based
# Procedure, shortened: (§2)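 Broth microdilution; MIC (μg/mL) = lowest concentration with no macroscopically visible growth.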
# E. coli LZ3111 = experiment: Antibacterial activity, MIC, quinolone resistant strain (Table 2); format: cell-based; conditions: Escherichia coli, LZ3111, read-out: MIC LZ3111
# Procedure, shortened: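 Growth inhibition assessed by serial drug dilution in broth; endpoint was absence of macroscopically visible growth, reported as MIC, μg/mL.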
# [2] = tested on: Klebsiella pneumoniae (K. pneumoniae) 35657; experiment: Antibacterial activity, MIC (Table 4); format: cell-based; conditions: K. pneumoniae 35657, read-out: MIC, 35657
# Procedure, shortened: as §1
# [3] = tested on: Acinetobacter baumannii (A. baumannii) BAA747; experiment: Antibacterial activity, MIC (Table 4); format: cell-based; conditions: A. baumannii BAA747, read-out: MIC, BAA747
# Procedure, shortened: as §1
# [4] = tested on: Pseudomonas aeruginosa (P. aeruginosa) 27853; experiment: Antibacterial activity, MIC (Table 5); format: cell-based; conditions: P. aeruginosa 27853, read-out: MIC, 27853
# Procedure, shortened: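 Using a microbroth dilution format, the minimum inhibitory concentration was recorded as the lowest tested concentration that stopped visible bacterial growth, expressed in μg/mL.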
# [5] = tested on: Neisseria meningitidis (N. meningitidis) 13090; experiment: Antibacterial activity, MIC (Table 8); format: cell-based
# Procedure, shortened: as §2
# E. coli ELZ4000 = experiment: Antibacterial activity, MIC, multi-drug resistant clinical isolate (Table 3); format: cell-based; conditions: Escherichia coli, ELZ4000, read-out: MIC ELZ4000
# Procedure, shortened: (§3)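 Values derive from a microbroth dilution method, taking as MIC (μg/mL) the lowest tested concentration without macroscopically visible growth.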
# E. coli ELZ4251 = experiment: as above; format: cell-based; conditions: Escherichia coli
# Procedure, shortened: as §3
# [6] = tested on: Staphylococcus aureus (S. aureus) 29213; experiment: Antibacterial activity, microbroth dilution MIC (Table 1); format: cell-based; conditions: microbroth dilution, Gram-positive S. aureus 29213, read-out: MIC, 29213
# Procedure, shortened: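 Lowest concentration stopping macroscopically visible growth under test conditions, by broth microdilution, defines the MIC (μg/mL).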
# [7] = tested on: Escherichia coli (E. coli) BAS849; experiment: as above; format: cell-based; conditions: microbroth dilution, super sensitive Gram-negative E. coli BAS849, read-out: MIC, BAS849
# Procedure, shortened: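 Values are MICs (μg/mL): the smallest drug amount at which macroscopically visible bacterial growth is absent under assay conditions, from a microdilution method in broth.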
# [8] = tested on: Haemophilus influenzae (H. influenzae) 49247; experiment: Antibacterial activity, MIC (Table 6); format: cell-based
# Procedure, shortened: as §2
Compound,MIC (K. pneumoniae MXX1232) [µg/mL],MIC (A. baumannii MXX2240) [µg/mL],MIC (E. coli 25922) [µg/mL],MIC [1] [µg/mL],MIC (E. coli LZ3111) [µg/mL],MIC [2] [µg/mL],MIC [3] [µg/mL],MIC [4] [µg/mL],MIC [5] [µg/mL],MIC (E. coli ELZ4000) [µg/mL],MIC (E. coli ELZ4251) [µg/mL],MIC [6] [µg/mL],MIC [7] [µg/mL],MIC [8] [µg/mL]
"CCc1c(-c2ccc3c(c2)cc(CNCC2CC2)n3C)[nH]c(=O)c(C(=O)O)c1O.Cl [Cpd 223, 6-(2-((cyclopropylmethylamino)methyl)-1-methyl-1H-indol-5-yl)-5-ethyl-4-hydroxy-2-oxo-1,2-dihydropyridine-3-carboxylic acid hydrochloride]",12.5 to 150,1 to 3.5,< 1,< 1,1 to 3.5,3.5 to 12.5,< 1,3.5 to 12.5,< 1,3.5 to 12.5,12.5 to 150,3.5 to 12.5,< 1,< 1
"CCc1c(-c2ccc3c(c2)cc(CN2CC(N)C2)n3C)[nH]c(=O)c(C(=O)O)c1O [Cpd 188, 6-(2-((3-aminoazetidin-1-yl)methyl)-1-methyl-1H-indol-5-yl)-5-ethyl-4-hydroxy-2-oxo-1,2-dihydropyridine-3-carboxylic acid]",12.5 to 150,12.5 to 150,< 1,3.5 to 12.5,1 to 3.5,12.5 to 150,12.5 to 150,12.5 to 150,3.5 to 12.5,12.5 to 150,12.5 to 150,12.5 to 150,< 1,3.5 to 12.5
"CCc1c(-c2ccc3c(c2)cc2n3CCNC2)[nH]c(=O)c(C(=O)O)c1O [Cpd 305, 5-ethyl-4-hydroxy-2-oxo-6-(1,2,3,4-tetrahydropyrazino[1,2-a]indol-8-yl)-1,2-dihydropyridine-3-carboxylic acid]",12.5 to 150,12.5 to 150,< 1,< 1,3.5 to 12.5,< 1,1 to 3.5,3.5 to 12.5,< 1,12.5 to 150,3.5 to 12.5,3.5 to 12.5,< 1,< 1
"Cc1c(-c2ccc3c(c2)cc(CN(C)C)n3C)[nH]c(=O)c(C(=O)O)c1O [Cpd 314, 6-(2-((dimethylamino)methyl)-1-methyl-1H-indol-5-yl)-4-hydroxy-5-methyl-2-oxo-1,2-dihydropyridine-3-carboxylic acid]",12.5 to 150,1 to 3.5,3.5 to 12.5,3.5 to 12.5,1 to 3.5,3.5 to 12.5,3.5 to 12.5,12.5 to 150,< 1,3.5 to 12.5,1 to 3.5,12.5 to 150,< 1,1 to 3.5
"CCc1c(-c2ccc3c(c2)cc(CN2CCC(NC)CC2)n3C)[nH]c(=O)c(C(=O)O)c1O [Cpd 256, 5-ethyl-4-hydroxy-6-(1-methyl-2-((4-(methylamino)piperidin-1-yl)methyl)-1H-indol-5-yl)-2-oxo-1,2-dihydropyridine-3-carboxylic acid]",12.5 to 150,12.5 to 150,1 to 3.5,1 to 3.5,1 to 3.5,1 to 3.5,12.5 to 150,3.5 to 12.5,1 to 3.5,12.5 to 150,12.5 to 150,3.5 to 12.5,< 1,1 to 3.5
"CCc1c(-c2ccc3c(c2)cc(CN2CCC2)n3C)[nH]c(=O)c(C(=O)O)c1O [Cpd 186, 6-(2-(azetidin-1-ylmethyl)-1-methyl-1H-indol-5-yl)-5-ethyl-4-hydroxy-2-oxo-1,2-dihydropyridine-3-carboxylic acid]",12.5 to 150,1 to 3.5,< 1,< 1,1 to 3.5,< 1,< 1,3.5 to 12.5,3.5 to 12.5,3.5 to 12.5,3.5 to 12.5,3.5 to 12.5,< 1,< 1
